Source: patent US10138229B2, “Heteroaromatic compounds as BTK inhibitors” (Boehringer Ingelheim International GmbH, priority 2012, dated 2018)

biological target: full-length human His-tagged BTK (Homo sapiens (Human), UniProt Q06187); test: BTK Assay (HTRF, Cisbio KinEASE-TK); assay type: biochemical; settings: 6 nM BTK, 30 uM ATP, 15 min preincubation
Sequence (Q06187 whole entry): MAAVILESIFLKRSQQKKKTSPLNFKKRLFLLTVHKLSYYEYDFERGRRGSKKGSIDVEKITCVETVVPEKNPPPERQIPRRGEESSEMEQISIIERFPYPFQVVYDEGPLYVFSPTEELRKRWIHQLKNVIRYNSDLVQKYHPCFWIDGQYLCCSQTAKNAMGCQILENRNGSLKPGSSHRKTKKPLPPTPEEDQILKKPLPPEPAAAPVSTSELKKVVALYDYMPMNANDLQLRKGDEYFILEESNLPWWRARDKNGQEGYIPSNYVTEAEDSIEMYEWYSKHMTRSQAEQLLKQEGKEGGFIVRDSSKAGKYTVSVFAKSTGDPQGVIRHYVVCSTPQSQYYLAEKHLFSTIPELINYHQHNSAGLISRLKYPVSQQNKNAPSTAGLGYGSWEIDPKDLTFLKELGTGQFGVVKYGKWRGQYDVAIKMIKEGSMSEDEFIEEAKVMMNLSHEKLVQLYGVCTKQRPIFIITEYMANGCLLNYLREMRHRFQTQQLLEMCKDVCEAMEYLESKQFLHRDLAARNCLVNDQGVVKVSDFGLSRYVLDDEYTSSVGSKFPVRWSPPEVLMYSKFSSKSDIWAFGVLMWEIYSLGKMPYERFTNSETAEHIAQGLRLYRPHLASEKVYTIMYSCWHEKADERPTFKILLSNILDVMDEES
Description: An HTRF assay (Cisbio KinEASE-TK cat #62TKOPEC) was performed to quantitate the ability of test compounds to inhibit BTK mediated phosphorylation of substrate. Assays were assembled in 384 well plates where 6 nM of full-length human His-tagged BTK (Life Technologies cat # PV3587) and test compound at varying concentrations were preincubated for 15 minutes at 28° C. Then, 1 uM of TK substrate-biotin and 30 uM ATP were added and incubated for an additional 30 minutes at 28° C.

IC50 | SMILES
2600 nM | C=CC(=O)N1CCC[C@@H](n2cc(C(N)=O)c(-c3ccc(-c4ccccc4)cc3)n2)C1 [Example 1]
33 nM | C=CC(=O)N1CCC[C@@H](n2cc(C(N)=O)c(-c3ccc(OCc4ccccc4)cc3)n2)C1 [Example 2]
14 nM | C=CC(=O)N1CCC[C@@H](n2cc(C(N)=O)c(-c3ccc(Cc4ccccc4)cc3)n2)C1 [Example 9]
9.4 nM | C=CC(=O)N1CCC[C@@H](n2cc(C(N)=O)c(-c3ccc(Oc4ccccc4)c(Cl)c3)n2)C1 [Example 24]
3.2 nM | C=CC(=O)N1CCC[C@@H](n2cc(C(N)=O)c(-c3ccc(Oc4ccccc4)cc3)n2)C1 [Example 29]
57 nM | CN(C)C/C=C/C(=O)N1CCC[C@@H](n2cc(C(N)=O)c(-c3ccc(Oc4ccccc4)cc3)n2)C1 [Example 30]
80 nM | CC#CC(=O)N1CCC[C@@H](n2cc(C(N)=O)c(-c3ccc(Oc4ccccc4)cc3)n2)C1 [Example 31]
230 nM | CN(C)C/C=C/C(=O)N1CCC[C@H]1Cn1cc(C(N)=O)c(-c2ccc(Oc3ccccc3)cc2)n1 [Example 36]
38 nM | CN(C)C/C=C/C(=O)N1CC[C@]2(C1)C[C@H](n1cc(C(N)=O)c(-c3ccc(Oc4ccccc4)cc3)n1)C2 [Example 37]
64 nM | C=CC(=O)N1CCC(Cn2cc(C(N)=O)c(-c3ccc(Oc4ccccc4)cc3)n2)C1 (stereo not shown) [Example 42]
10 nM | C=CC(=O)N1CCCC(Cn2cc(C(N)=O)c(-c3ccc(Oc4ccccc4)cc3)n2)C1 (stereo not shown) [Example 45]
90 nM | CC#CC(=O)N1CCCC(Cn2cc(C(N)=O)c(-c3ccc(Oc4ccccc4)cc3)n2)C1 (stereo not shown) [Example 48]
6.6 nM | C=CC(=O)N1CCC(n2cc(C(N)=O)c(-c3ccc(Oc4ccccc4)cc3)n2)CC1 [Example 55]
15 nM | CC#CC(=O)N1CCC(n2cc(C(N)=O)c(-c3ccc(Oc4ccccc4)cc3)n2)CC1 [Example 56]
93 nM | C=CC(=O)N1CCC[C@@H](n2cc(C(N)=O)c(-c3ccc(Oc4ccc(F)cc4)cc3)n2)C1 [Example 62]
330 nM | C=CC(=O)N1CCC[C@@H](n2cc(C(N)=O)c(-c3ccc(Oc4cccc(S(C)(=O)=O)c4)cc3)n2)C1 [Example 65]
38 nM | C=CC(=O)N1CCC[C@@H](n2cc(C(N)=O)c(-c3ccc(Oc4ccc(OC)cc4)cc3)n2)C1 [Example 67]
41 nM | C=CC(=O)N1CCC[C@@H](n2cc(C(N)=O)c(-c3ccc(Oc4cccc(Cl)c4)cc3)n2)C1 [Example 68]
45 nM | C=CC(=O)N1CCC[C@@H](n2cc(C(N)=O)c(-c3ccc(Oc4ccc(Cl)cc4)cc3)n2)C1 [Example 70]
14 nM | C=CC(=O)N1CCC[C@@H](n2cc(C(N)=O)c(-c3ccc(Oc4ccc(C)cc4)cc3)n2)C1 [Example 71]
4 nM | C=CC(=O)N1CCC[C@@H](n2cc(C(N)=O)c(-c3ccc(Oc4cccc(C)c4)cc3)n2)C1 [Example 72]
9.3 nM | C=CC(=O)N1CCC[C@@H](n2cc(C(N)=O)c(-c3ccc(Oc4cccc(F)c4)cc3)n2)C1 [Example 73]
6600 nM | C=CC(=O)N1CCC[C@@H](n2cc(C(N)=O)c(-c3ccc(Oc4ccc(C#N)cc4)cc3)n2)C1 [Example 75]
61 nM | C=CC(=O)N1CCC[C@@H](n2cc(C(N)=O)c(-c3ccc(Oc4cccc(C#N)c4)cc3)n2)C1 [Example 76]
90 nM | CNC(=O)/C=C/CN1CCC[C@@H](n2cc(C(N)=O)c(-c3ccc(Oc4ccccc4)cc3)n2)C1 [Example 90]

Further lines, the molecule ahead of its results:

SMILES | IC50
C=CC(=O)N1CCC2(CC(n3nc(-c4ccc(OCCC)cc4)c(C(N)=O)c3N)C2)C1 (single isomer, unassigned) [Example 125] | 7.5 nM
C=CC(=O)N1CCC[C@@H](n2cc(C(N)=O)c(-c3cccc(OCc4ccccc4)c3)n2)C1 [Example 3] | 810 nM
C=CC(=O)N1CCC[C@@H](n2cc(C(N)=O)c(-c3cccc(NS(=O)(=O)c4ccc(C)cc4)c3)n2)C1 [Example 11] | 5500 nM
C=CC(=O)N1CCC[C@@H](n2cc(C(N)=O)c(-c3ccc(-n4nc(C)cc4C)cc3)n2)C1 [Example 14] | 7800 nM
C=CC(=O)N1CCC[C@@H](n2cc(C(N)=O)c(-c3ccc4occc4c3)n2)C1 [Example 16] | 580 nM
C=CC(=O)N1CCC[C@@H](n2cc(C(N)=O)c(-c3cccc(NS(C)(=O)=O)c3)n2)C1 [Example 17] | 4800 nM
C=CC(=O)N1CCC[C@@H](n2cc(C(N)=O)c(-c3ccc(Oc4ccc(Cl)c(Cl)c4)c(OC)c3)n2)C1 [Example 20] | 30 nM
C=CC(=O)N1CCC[C@@H](n2cc(C(N)=O)c(-c3ccc(OCc4ccccn4)c(Cl)c3)n2)C1 [Example 21] | 98 nM
C=CC(=O)N1CCC[C@@H](n2cc(C(N)=O)c(-c3ccc(Oc4ccccc4)c(OC)c3)n2)C1 [Example 22] | 7.6 nM
C=CC(=O)N1CCC[C@@H](n2cc(C(N)=O)c(-c3ccc(Oc4ccccc4)c(F)c3)n2)C1 [Example 23] | 10 nM
C=CC(=O)N1CCC[C@@H](n2cc(C(N)=O)c(-c3ccc(NC(=O)c4cc5ccccc5n4C)c(OC)c3)n2)C1 [Example 25] | 5.1 nM
C=CC(=O)N1CCC[C@@H](n2cc(C(N)=O)c(-c3ccc(NC(=O)c4ccc(C(F)(F)F)cc4F)c(OC)c3)n2)C1 [Example 26] | 22 nM
C=CC(=O)N1CCC[C@@H](n2cc(C(N)=O)c(-c3ccc(Nc4nc5ccccc5o4)cc3)n2)C1 [Example 27] | 300 nM
CC#CC(=O)N1CCC[C@H]1Cn1cc(C(N)=O)c(-c2ccc(Oc3ccccc3)cc2)n1 [Example 32] | 150 nM
C=CC(=O)N1CCC[C@H]1Cn1cc(C(N)=O)c(-c2ccc(Oc3ccccc3)cc2)n1 [Example 33] | 9.7 nM
C=CC(=O)NCCc1nc(-c2ccc(Oc3ccccc3)cc2)c(C(N)=O)s1 [Example 34] | 21 nM
C=CC(=O)N1CC2(CC(n3nc(-c4ccc(Oc5ccccc5)cc4)c(C(N)=O)c3N)C2)C1 [Example 35] | 0.77 nM
CC#CC(=O)N1CC[C@]2(C1)C[C@H](n1cc(C(N)=O)c(-c3ccc(Oc4ccccc4)cc3)n1)C2 [Example 38] | 13 nM
C=CC(=O)NCCn1cc(C(N)=O)c(-c2ccc(Oc3ccccc3)cc2)n1 [Example 39] | 290 nM
CC#CC(=O)N1CCC(Cn2cc(C(N)=O)c(-c3ccc(Oc4ccccc4)cc3)n2)C1 (stereo not shown) [Example 43] | 51 nM
C=CC(=O)NCCn1nc(-c2ccc(Oc3ccccc3)cc2)c(C(N)=O)c1N [Example 44] | 1 nM
C=CC(=O)N1CCC(Cn2cc(C(N)=O)c(-c3ccc(Oc4ccccc4)cc3)n2)CC1 [Example 47] | 10 nM
CC#CC(=O)N1CCC(Cn2cc(C(N)=O)c(-c3ccc(Oc4ccccc4)cc3)n2)CC1 [Example 49] | 180 nM
C=CC(=O)N1CCC[C@H]1Cc1nc(-c2ccc(Oc3ccccc3)cc2)c(C(N)=O)s1 [Example 50] | 3 nM

SMILES | IC50
C=CC(=O)N1CCC[C@@H](c2nc(-c3ccc(Oc4ccccc4)cc3)c(C(N)=O)s2)C1 [Example 51] | 1.7 nM
CC#CC(=O)N1CCC[C@@H](c2nc(-c3ccc(Oc4ccccc4)cc3)c(C(N)=O)s2)C1 [Example 52] | 18 nM
CC#CC(=O)N1CCC[C@H]1Cc1nc(-c2ccc(Oc3ccccc3)cc2)c(C(N)=O)s1 [Example 53] | 14 nM
C=CC(=O)N1CC2(CC(c3nc(-c4ccc(Oc5ccccc5)cc4)c(C(N)=O)s3)C2)C1 [Example 57] | 3.2 nM
CC#CC(=O)N1CC2(CC(c3nc(-c4ccc(Oc5ccccc5)cc4)c(C(N)=O)s3)C2)C1 [Example 58] | 1.1 nM
CC#CC(=O)N1CCC[C@@H](c2nc(-c3ccc(Oc4ccccc4)cc3)c(C(N)=O)[nH]2)C1 [Example 59] | 8.9 nM
C=CC(=O)N1CCC[C@@H](n2cc(C(N)=O)c(-c3ccc(NC(=O)Nc4cccc(C)c4)cc3)n2)C1 [Example 60] | 41 nM
C=CC(=O)N1CCC[C@@H](n2cc(C(N)=O)c(-c3ccc(NS(=O)(=O)c4cccc(Cl)c4Cl)cc3)n2)C1 [Example 61] | 780 nM
C=CC(=O)N1CCC[C@@H](n2cc(C(N)=O)c(-c3ccc(Oc4ccc(C(F)(F)F)cc4)cc3)n2)C1 [Example 63] | 660 nM
C=CC(=O)N1CCC[C@@H](n2cc(C(N)=O)c(-c3ccc(Oc4ccc(S(C)(=O)=O)cc4)cc3)n2)C1 [Example 64] | 6500 nM
C=CC(=O)N1CCC[C@@H](n2cc(C(N)=O)c(-c3ccc(Oc4ccc(Cl)c(F)c4)cc3)n2)C1 [Example 66] | 43 nM
C=CC(=O)N1CCC[C@@H](n2cc(C(N)=O)c(-c3ccc(Oc4ccc(Cl)c(Cl)c4)cc3)n2)C1 [Example 69] | 43 nM
NC(=O)c1c(-c2ccc(Oc3ccccc3)cc2)nn(C2CC3(C2)CN(C(=O)/C=C/CN2CCOCC2)C3)c1N [Example 77] | 1.9 nM
C=CC(=O)N1CC[C@]2(C1)C[C@@H](c1nc(-c3ccc(Oc4ccccc4)cc3)c(C(N)=O)s1)C2 [Example 79] | 6.4 nM
C=CC(=O)N1CC[C@]2(C1)C[C@H](n1nc(-c3ccc(Oc4ccccc4)cc3)c(C(N)=O)c1N)C2 [Example 80] | 0.93 nM
C=CC(=O)N1CCC2(CC1)CC(n1nc(-c3ccc(Oc4ccccc4)cc3)c(C(N)=O)c1N)C2 [Example 82] | 2 nM
CC#CC(=O)N1CCC2(CC1)CC(n1nc(-c3ccc(Oc4ccccc4)cc3)c(C(N)=O)c1N)C2 [Example 83] | 2.1 nM
C=CC(=O)N1CCC2(CC1)CC(c1nc(-c3ccc(Oc4ccccc4)cc3)c(C(N)=O)s1)C2 [Example 84] | 52 nM
CC#CC(=O)N1CCC2(CC1)CC(c1nc(-c3ccc(Oc4ccccc4)cc3)c(C(N)=O)s1)C2 [Example 85] | 300 nM
C=CC(=O)N1CCC2(CC1)CC(n1cc(C(N)=O)c(-c3ccc(Oc4ccccc4)cc3)n1)C2 [Example 86] | 95 nM
CC#CC(=O)N1CCC2(CC1)CC(c1nc(-c3ccc(Oc4ccccc4)cc3)c(C(N)=O)[nH]1)C2 [Example 87] | 4.3 nM
C=CC(=O)N1CC[C@]2(C1)C[C@@H](n1cc(C(N)=O)c(-c3ccc(Oc4ccccc4)cc3)n1)C2 [Example 88] | 21 nM
CC#CC(=O)N1CC[C@]2(C1)C[C@@H](n1cc(C(N)=O)c(-c3ccc(Oc4ccccc4)cc3)n1)C2 [Example 89] | 34 nM
CC#CC(=O)N1CC[C@]2(C1)C[C@H](n1nc(-c3ccc(Oc4ccccc4)cc3)c(C(N)=O)c1N)C2 [Example 91] | 0.79 nM
